target: HPK1 (MAP4K1) (Homo sapiens, UniProt Q92918); experiment: HPK1 (MAP4K1) kinase Lantha screen assay; type: biochemical
Procedure: The effect of the compounds on the activity of HPK1 (MAP4K1) kinase were assessed by Lantha screen assay. • 1. 1×kinase buffer was prepared (50 mM HEPES, pH 7.5, 10 mM MgCl2, 4 mM DT • 2. Compound and assay plates preparation: • 2-1) The compound was diluted to 100× of the final desired highest inhibitor concentration in reaction by 100% DMSO. For example, if a compound was tested at […], then a solution at 500 µM in DMSO was prepared in this step. • 2-2) For each tested compound, the compound was transferred in tubes to one well on a 96-well storage plate and serially diluted by transferring […] of 100% DMSO in the next well and so forth for a total of 6 concentrations. • 2-3) 100 μl of 100% DMSO were added to two empty wells to serve as no compound control and no enzyme control in the same 96-well plate. The resulting plate was labeled as the source plate. • 2-4) 40 μl of compound from source plate were transferred to a new 384-well Echo plate as the intermediate plate. 100 nl of each well from the 384-well Echo plate were transferred to a 384-well assay plate in duplicates. For example, A1 of the 384-well Echo plate was transferred to A1 and A2 of the 384-well plate. A2 of the 384-well Echo plate was transferred to A3 and A4 of the 384-well plate, and so on; • 3. Kinase reaction: a solution of MAP4K1 in 1× kinase buffer at 2-fold the final concentration of each reagent in the assay was prepared. 5 μl of kinase solution was added to each well of the assay plate, except for control wells without enzyme (add 5 μl of 1× kinase buffer instead). The plate was then shaken, then incubated at room temperature for 10 min. A substrate solution of Fluorescein-PKC and ATP in 1× kinase reaction buffer at 2-fold of the final concentration of each reagent desired in the assay was prepared. 5 μl of substrate solution was added to each well of the assay plate to start reaction. The plate was shaken, then covered, and incubated at room temperature for 90 minutes.
Kinase detection: detection solution of 2-fold of final concentration in Antibody Dilution Buffer was prepared. 10 μl of detection solution was added to each well of the assay plate to stop the reaction. The mixtures were mixed briefly with Centrifuge and incubated at room temperature 60 minutes before reading on a plate reader for fluorescence. Data was collected on Envision with excitation at 340 nm and emission at 520 nm and 495 nm.

Chain of HPK1 (MAP4K1) (Q92918 whole entry, species assumed): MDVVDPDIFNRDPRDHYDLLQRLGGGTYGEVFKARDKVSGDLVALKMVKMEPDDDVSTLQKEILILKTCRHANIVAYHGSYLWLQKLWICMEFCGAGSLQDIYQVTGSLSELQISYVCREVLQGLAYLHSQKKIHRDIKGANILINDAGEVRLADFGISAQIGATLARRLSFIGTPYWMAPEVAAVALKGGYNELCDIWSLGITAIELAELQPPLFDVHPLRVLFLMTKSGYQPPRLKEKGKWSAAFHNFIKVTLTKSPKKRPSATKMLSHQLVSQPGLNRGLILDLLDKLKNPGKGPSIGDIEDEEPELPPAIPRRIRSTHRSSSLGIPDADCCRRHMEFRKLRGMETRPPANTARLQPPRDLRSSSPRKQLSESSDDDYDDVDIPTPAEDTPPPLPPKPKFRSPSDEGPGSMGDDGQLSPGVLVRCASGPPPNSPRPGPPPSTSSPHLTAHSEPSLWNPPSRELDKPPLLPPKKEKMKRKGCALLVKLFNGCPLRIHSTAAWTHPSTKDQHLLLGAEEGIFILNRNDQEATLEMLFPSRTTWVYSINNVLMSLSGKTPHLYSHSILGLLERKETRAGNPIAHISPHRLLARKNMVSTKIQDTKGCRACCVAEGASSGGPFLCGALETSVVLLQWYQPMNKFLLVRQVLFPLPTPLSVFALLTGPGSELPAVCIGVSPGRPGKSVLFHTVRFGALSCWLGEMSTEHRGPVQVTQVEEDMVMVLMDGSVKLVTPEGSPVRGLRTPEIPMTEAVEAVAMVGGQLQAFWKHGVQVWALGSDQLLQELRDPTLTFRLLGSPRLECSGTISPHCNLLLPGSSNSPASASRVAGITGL

Row | SMILES | IC50 [nM]
1 | Cc1ccc(NC(=O)c2cc(C(F)(F)F)ccn2)cc1C1=Cc2cnc(Nc3cn(C)nn3)nc2N2CCN=C12 [Compound 237, N-(4-methyl-3-(2-((1-methyl-1H-1,2,3-triazol-4-yl)amino)-8,9-dihydroimidazo[1′,2′:1,6]pyrido[2,3-d]pyrimidin-6-yl)phenyl)-4-(trifluoromethyl)picolinamide] | < 100
2 | CNc1ncc2c(n1)N1CCN=C1C(c1cc(NC(=O)c3cccc(C(C)(C)C#N)c3)ccc1C)=C2 [Compound 161, 3-(2-cyanopropan-2-yl)-N-(4-methyl-3-(2-(methylamino)-8,9-dihydroimidazo[1′,2′:1,6]pyrido[2,3-d]pyrimidin-6-yl)phenyl)benzamide] | < 100
3 | Cc1ccc(NC(=O)c2cc(C(F)(F)F)ccn2)cc1C1=Cc2cnc(Nc3cccc(F)c3)nc2N2CCN=C12 [Compound 226, N-(3-(2-((3-fluorophenyl)amino)-8,9-dihydroimidazo[1′,2′:1,6]pyrido[2,3-d]pyrimidin-6-yl)-4-methylphenyl)-4-(trifluoromethyl)picolinamide] | < 100
4 | CNc1ncc2c(n1)N1CCN=C1C(c1cc(C(=O)Nc3cc(C(F)(F)F)ccn3)c(F)cc1C)=C2 [Compound 277, 2-fluoro-4-methyl-5-(2-(methylamino)-8,9-dihydroimidazo[1′,2′:1,6]pyrido[2,3-d]pyrimidin-6-yl)-N-(4-(trifluoromethyl)pyridin-2-yl)benzamide] | 100 to 10000
5 | Cc1ccc(NC(=O)c2cc(C(F)(F)F)ccn2)cc1C1=Cc2cnc(Nc3ccncc3F)nc2N2CCN=C12 [Compound 219, N-(3-(2-((3-fluoropyridin-4-yl)amino)-8,9-dihydroimidazo[1′,2′:1,6]pyrido[2,3-d]pyrimidin-6-yl)-4-methylphenyl)-4-(trifluoromethyl)picolinamide] | 100 to 10000
6 | CNc1ncc2c(n1)N1CCN=C1C(c1cc(NC(=O)C3(C(=O)Nc4ccc(F)cc4)CC3)ccc1Cl)=C2 [Compound 342, N-(4-chloro-3-(2-(methylamino)-8,9-dihydroimidazo[1′,2′:1,6]pyrido[2,3-d]pyrimidin-6-yl)phenyl)-N-(4-fluorophenyl)cyclopropane-1,1-dicarboxamide] | 100 to 10000
7 | Cc1cnccc1Nc1ncc2c(n1)N1CCN=C1C(c1cc(NC(=O)c3cc(C(F)(F)F)ccn3)ccc1C)=C2 [Compound 213, N-(4-methyl-3-(2-((3-methylpyridin-4-yl)amino)-8,9-dihydroimidazo[1′,2′:1,6]pyrido[2,3-d]pyrimidin-6-yl)phenyl)-4-(trifluoromethyl)picolinamide] | < 100
8 | CNc1ncc2c(n1)N1CCN=C1C(c1cc(NC(=O)c3nccc(C(F)(F)F)n3)ccc1C)=C2 [Compound 148, N-(4-methyl-3-(2-(methylamino)-8,9-dihydroimidazo[1′,2′:1,6]pyrido[2,3-d]pyrimidin-6-yl)phenyl)-4-(trifluoromethyl)pyrimidine-2-carboxamide] | 100 to 10000
9 | Clc1ccccc1C1=Cc2cnc(Nc3ccc(N4CCOCC4)nc3)nc2N2CCN=C12 [Compound 100, 6-(2-chlorophenyl)-N-(6-morpholinopyridin-3-yl)-8,9-dihydroimidazo[1′,2′:1,6]pyrido[2,3-d]pyrimidin-2-amine] | 100 to 10000
10 | Cc1ccc(Nc2ncc3c(n2)N2CCN=C2C(c2cc(NC(=O)c4cc(C(F)(F)F)ccn4)c(F)cc2C)=C3)cn1 [Compound 267, N-(2-fluoro-4-methyl-5-(2-((6-methylpyridin-3-yl)amino)-8,9-dihydroimidazo[1′,2′:1,6]pyrido[2,3-d]pyrimidin-6-yl)phenyl)-4-(trifluoromethyl)picolinamide] | < 100
11 | Cc1ccc(NC(=O)c2cc(C(F)(F)F)ccn2)cc1C1=Cc2cnc(Nc3ccc(F)cc3)nc2N2CCN=C12 [Compound 227, N-(3-(2-((4-fluorophenyl)amino)-8,9-dihydroimidazo[1′,2′:1,6]pyrido[2,3-d]pyrimidin-6-yl)-4-methylphenyl)-4-(trifluoromethyl)picolinamide] | < 100
12 | Cc1ccc(NC(=O)c2cc(C(F)(F)F)ccn2)cc1C1=Cc2cnc(NC3CNC3)nc2N2CCN=C12 [Compound 116, N-(3-(2-(azetidin-3-ylamino)-8,9-dihydroimidazo[1′,2′:1,6]pyrido[2,3-d]pyrimidin-6-yl)-4-methylphenyl)-4-(trifluoromethyl)picolinamide] | 100 to 10000
13 | CNc1ncc2c(n1)N1C[C@@H](C)N=C1C(c1cc(NC(=O)c3cc(C(F)(F)F)ccn3)ccc1C)=C2 [Compound 127, (R)—N-(4-methyl-3-(8-methyl-2-(methylamino)-8,9-dihydroimidazo[1′,2′:1,6]pyrido[2,3-d]pyrimidin-6-yl)phenyl)-4-(trifluoromethyl)picolinamide] | 100 to 10000

The remaining lines, values ahead:

Row | IC50 [nM] | SMILES
14 | < 100 | Cc1ccc(NC(=O)c2cc(C(F)(F)F)ccn2)cc1C1=Cc2cnc(NCC(C)(C)O)nc2N2CCN=C12 [Compound 113, N-(3-(2-((2-hydroxy-2-methylpropyl)amino)-8,9-dihydroimidazo[1′,2′:1,6]pyrido[2,3-d]pyrimidin-6-yl)-4-methylphenyl)-4-(trifluoromethyl)picolinamide]
15 | 100 to 10000 | COc1ccncc1Nc1ncc2c(n1)N1CCN=C1C(c1cc(NC(=O)c3cc(C(F)(F)F)ccn3)ccc1C)=C2 [Compound 223, N-(3-(2-((4-methoxypyridin-3-yl)amino)-8,9-dihydroimidazo[1′,2′:1,6]pyrido[2,3-d]pyrimidin-6-yl)-4-methylphenyl)-4-(trifluoromethyl)picolinamide]
16 | < 100 | CNc1ncc2c(n1)N1CCN=C1C(c1cc(NC(=O)c3ccnc(C(C)(C)C#N)c3)ccc1C)=C2 [Compound 162, 2-(2-cyanopropan-2-yl)-N-(4-methyl-3-(2-(methylamino)-8,9-dihydroimidazo[1′,2′:1,6]pyrido[2,3-d]pyrimidin-6-yl)phenyl)isonicotinamide]
17 | 100 to 10000 | Cc1ccc(NC(=O)c2cc(C(F)(F)F)ccn2)cc1C1=Cc2cnc(Nc3ccccn3)nc2N2CCN=C12 [Compound 216, N-(4-methyl-3-(2-(pyridin-2-ylamino)-8,9-dihydroimidazo[1′,2′:1,6]pyrido[2,3-d]pyrimidin-6-yl)phenyl)-4-(trifluoromethyl)picolinamide]
18 | < 100 | CNc1ncc2c(n1)N1CCN=C1C(c1cc(NC(=O)c3cc(C(F)(F)F)ccn3)c(F)cc1C)=C2 [Compound 139, N-(2-fluoro-4-methyl-5-(2-(methylamino)-8,9-dihydroimidazo[1′,2′:1,6]pyrido[2,3-d]pyrimidin-6-yl)phenyl)-4-(trifluoromethyl)picolinamide]
19 | < 100 | Cc1ccc(NC(=O)c2cc(C(F)(F)F)ccn2)cc1C1=Cc2cnc(NC3COC3)nc2N2CCN=C12 [Compound 114, N-(4-methyl-3-(2-(oxetan-3-ylamino)-8,9-dihydroimidazo[1′,2′:1,6]pyrido[2,3-d]pyrimidin-6-yl)phenyl)-4-(trifluoromethyl)picolinamide]
20 | < 100 | Cc1ccc(NC(=O)c2cc(C(F)(F)F)ccn2)cc1C1=Cc2cnc(Nc3cccnc3)nc2N2CCN=C12 [Compound 215, N-(4-methyl-3-(2-(pyridin-3-ylamino)-8,9-dihydroimidazo[1′,2′:1,6]pyrido[2,3-d]pyrimidin-6-yl)phenyl)-4-(trifluoromethyl)picolinamide]
21 | < 100 | Cc1ccc(NC(=O)c2cc(C(F)(F)F)ccn2)cc1C1=Cc2cnc(Nc3ccccc3F)nc2N2CCN=C12 [Compound 225, N-(3-(2-((2-fluorophenyl)amino)-8,9-dihydroimidazo[1′,2′:1,6]pyrido[2,3-d]pyrimidin-6-yl)-4-methylphenyl)-4-(trifluoromethyl)picolinamide]
22 | > 10000 | Cc1ccc(NC(=O)c2cc(C(F)(F)F)ccn2)cc1C1=Cc2cnc(NS(C)(=O)=O)nc2N2CCN=C12 [Compound 117, N-(4-methyl-3-(2-(methylsulfonamido)-8,9-dihydroimidazo[1′,2′:1,6]pyrido[2,3-d]pyrimidin-6-yl)phenyl)-4-(trifluoromethyl)picolinamide]
23 | 100 to 10000 | CNc1ncc2c(n1)N1CCN=C1C(c1cc(NC(=O)c3ccnc(C(F)(F)F)c3)ccc1C)=C2 [Compound 145, N-(4-methyl-3-(2-(methylamino)-8,9-dihydroimidazo[1′,2′:1,6]pyrido[2,3-d]pyrimidin-6-yl)phenyl)-2-(trifluoromethyl)isonicotinamide]
24 | < 100 | Cc1ccc(NC(=O)c2cc(C(F)(F)F)ccn2)cc1C1=Cc2cnc(Nc3ccn[nH]3)nc2N2CCN=C12 [Compound 240, N-(3-(2-((1H-pyrazol-5-yl)amino)-8,9-dihydroimidazo[1′,2′:1,6]pyrido[2,3-d]pyrimidin-6-yl)-4-methylphenyl)-4-(trifluoromethyl)picolinamide]

— patent publication US20230303570A1, “KINASE INHIBITORS AND USES THEREOF” (ABM Therapeutics Corporation, priority 2020, published 2023)
